Assay results published in patent US11814364B2, “Pyridine N-oxide derivatives useful as factor XIa inhibitors” (Janssen Pharmaceutica NV, priority 2021, dated 2023).
pIC50: −log10 of the molar value.

Biological target: human plasma kallikrein (Homo sapiens, UniProt P03952)
Assay: Kallikrein inhibition FLINT assay with quenched AMC peptide substrate Z-Gly-Pro-Arg-AMC (end point EP or kinetic KIN reads)
Type: biochemical
Details: kinetic reads at 5 min intervals over 30 min; read-out: Kallikrein (KIN) IC50
Summary of the method: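 Enzyme and compound were preincubated 30 min before adding 50 μM AMC substrate in pH 7.5 Tris/NaCl/CaCl2/BSA/CHAPS buffer. AMC release was read at 30 min endpoint or every 5 min.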

Chain of human plasma kallikrein (P03952 391-638 limits assumed): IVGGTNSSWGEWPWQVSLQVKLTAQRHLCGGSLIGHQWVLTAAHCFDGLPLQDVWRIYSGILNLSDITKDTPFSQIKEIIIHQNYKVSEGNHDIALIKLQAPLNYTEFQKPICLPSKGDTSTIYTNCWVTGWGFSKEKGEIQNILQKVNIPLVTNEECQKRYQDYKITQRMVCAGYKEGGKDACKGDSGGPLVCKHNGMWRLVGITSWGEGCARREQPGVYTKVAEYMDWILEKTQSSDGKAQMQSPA
Chain of human plasma kallikrein (P03952 20-390 partner limits assumed): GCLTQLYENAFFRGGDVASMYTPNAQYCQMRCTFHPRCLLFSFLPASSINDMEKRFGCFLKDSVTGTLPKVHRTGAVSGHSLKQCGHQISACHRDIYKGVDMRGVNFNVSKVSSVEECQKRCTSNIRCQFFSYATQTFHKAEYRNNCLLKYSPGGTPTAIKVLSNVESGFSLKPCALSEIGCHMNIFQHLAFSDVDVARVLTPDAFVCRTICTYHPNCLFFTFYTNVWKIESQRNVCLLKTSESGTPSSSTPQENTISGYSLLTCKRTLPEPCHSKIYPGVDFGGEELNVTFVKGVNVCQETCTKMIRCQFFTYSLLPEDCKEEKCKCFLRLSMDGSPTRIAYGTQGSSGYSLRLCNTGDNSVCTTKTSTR

Row | SMILES | pIC50
1 | CC(C)n1nncc1-c1cnn(C(CCOC(F)F)c2ccc(-c3c(-n4cc(C(F)(F)F)nn4)ccc(Cl)c3F)c[n+]2[O-])c1 (stereo not drawn) [Example P803] | ~7.03
2 | COCC[C@H](c1ccc(-c2c(-n3cnnn3)ccc(Cl)c2F)c[n+]1[O-])n1cc(-c2nn(C(F)F)cc2Cl)cn1 [Example P576] | 7.20
3 | Cc1cc(C(N)=O)sc1-c1cnn(C(CC2CC2)c2ccc(-c3c(-n4cc(C(F)(F)F)nn4)ccc(Cl)c3F)c[n+]2[O-])c1 (single isomer, unassigned) [Example P957] | 6.65
4 | Cn1ncnc1-c1cnn(C(Cc2nnco2)c2ccc(-c3c(-n4cc(C(F)(F)F)nn4)ccc(Cl)c3F)c[n+]2[O-])c1 (stereo not drawn) [Example P935] | 6.31
5 | [O-][n+]1ccc(-c2cnn(C(Cc3ccc(F)cc3)c3ccc(-c4c(OC(F)F)ccc(Cl)c4F)c[n+]3[O-])c2)cc1 (single isomer, unassigned) [Example Q17] | 5.11
6 | CN(CC(c1ccc(-c2c(-n3cnnn3)ccc(Cl)c2F)c[n+]1[O-])n1cc(-c2cc[n+]([O-])cc2)cn1)C(=O)c1ccccc1 (stereo not drawn) [Example P344] | 6.76
7 | [O-][n+]1cc(-c2c(-n3cnnn3)ccc(Cl)c2F)ccc1C(CC1CC1)n1cc(-c2scnc2C(F)(F)F)cn1 (stereo not drawn) [Example P540] | 6.33
8 | Cn1ncnc1-c1cnn(C(CCOC(F)F)c2ccc(-c3c(N)ccc(Cl)c3F)c[n+]2[O-])c1 (stereo not drawn) [Example Q45] | 6.64
9 | [O-][n+]1cc(-c2cc(Cl)ccc2-n2cnnn2)ccc1C(Cc1ccc(Cl)cc1)n1cc(-c2ccc(OC(F)(F)F)cc2)cn1 (stereo not drawn) [Example P150] | 6.40
10 | Cc1ncsc1-c1cnn(C(CC2CC2)c2ccc(-c3c(-n4cnnn4)ccc(Cl)c3F)c[n+]2[O-])c1 (stereo not drawn) [Example P488] | 7.03
11 | COCc1ccnn1CC(c1ccc(-c2c(-n3cnnn3)ccc(Cl)c2F)c[n+]1[O-])n1cc(-c2ccnc(C(F)(F)F)c2)cn1 (stereo not drawn) [Example P464] | 6.73
12 | O=C(O)c1ccn(CC(c2ccc(-c3c(-n4cnnn4)ccc(Cl)c3F)c[n+]2[O-])n2cc(-c3ccncc3)cn2)n1 (stereo not drawn) [Example P442] | ~6.86
13 | COC(=O)Nc1ccc(-c2cnn(C(CC3CCCC3)c3ccc(-c4c(-n5cnnn5)ccc(Cl)c4F)c[n+]3[O-])c2)cc1 (stereo not drawn) [Example P110] | 6.91
14 | Cn1nnc(-c2cnn([C@H](CCOC(F)F)c3ccc(-c4c(-n5cc(Cl)nn5)ccc(Cl)c4F)c[n+]3[O-])c2)c1F [Example P705] | 6.68
15 | Cn1ncnc1-c1cnn([C@H](Cc2ccn(C(F)F)n2)c2ccc(-c3c(-n4cc(C(F)(F)F)nn4)ccc(Cl)c3F)c[n+]2[O-])c1 [Example P816] | 7.06
16 | NC(=O)c1ccc(-c2cnn(C(Cc3ccn(C(F)F)n3)c3ccc(-c4c(-n5cc(C(F)(F)F)nn5)ccc(Cl)c4F)c[n+]3[O-])c2)cc1F (single isomer, unassigned) [Example P891] | 6.27
17 | CCC(c1cc(OC)c(-c2cc(Cl)ccc2C#N)c[n+]1[O-])n1cc(-c2ncnn2C(F)F)cn1 (stereo not drawn) [Example Q54] | 6.12
18 | COCCC(c1ccc(-c2c(-n3cnnn3)ccc(Cl)c2F)c[n+]1[O-])n1cc(-n2ccnc2)cn1 (single isomer, unassigned) [Example P527] | 6.75
19 | [2H]C([2H])(CC(c1ccc(-c2cc(Cl)ccc2C#N)c[n+]1[O-])n1cc(-c2ncnn2C(F)F)cn1)OC(F)F (single isomer, unassigned) [Example Q53] | 6.65
20 | Cn1ncnc1-c1cnn(C(Cc2ncco2)c2ccc(-c3c(-n4cc(C(F)(F)F)nn4)ccc(Cl)c3F)c[n+]2[O-])c1 (stereo not drawn) [Example P925] | 6.73
21 | CC(=O)Nc1cnc(C(F)(F)F)cc1-c1cnn(C(CC2CC2)c2ccc(-c3c(-n4cnnn4)ccc(Cl)c3F)c[n+]2[O-])c1 (single isomer, unassigned) [Example P842] | 6.46
22 | [2H]C([2H])(C[C@@H](c1ccc(-c2c(-n3cnnn3)ccc(Cl)c2F)c[n+]1[O-])n1cc(-c2cn(C)nc2Cl)cn1)OC(F)F [Example P849] | 6.38
23 | COCC[C@H](c1ccc(-c2c(-n3cnnn3)ccc(Cl)c2F)c[n+]1[O-])n1cc(-c2cnc(C(F)F)s2)cn1 [Example P531] | 6.76
24 | CCOc1cc(C(CC2CC2)n2cc(-c3cnn(C)c(=O)c3)cn2)[n+]([O-])cc1-c1c(-n2cnnn2)ccc(Cl)c1F (stereo not drawn) [Example P137] | 6.82
25 | COCC[C@H](c1ccc(-c2c(-n3cc(Cl)nn3)ccc(Cl)c2F)c[n+]1[O-])n1cc(-c2c(F)cnn2C(F)F)cn1 [Example P626] | 6.49
26 | COC(=O)N1CCCC(c2cnn(C(CC3CC3)c3ccc(-c4c(-n5cnnn5)ccc(Cl)c4F)c[n+]3[O-])c2)C1 (stereo not drawn) [Example P108] | 6.19
27 | CC(=O)N(C)CC(c1ccc(-c2c(-n3cnnn3)ccc(Cl)c2F)c[n+]1[O-])n1cc(-c2cc[n+]([O-])cc2)cn1 (stereo not drawn) [Example P351] | 6.88
28 | Cn1ncc(-c2cnn(C(CC3CC3)c3cc(Cl)c(-c4c(-n5cnnn5)ccc(Cl)c4F)c[n+]3[O-])c2)cc1=O (stereo not drawn) [Example P139] | 7.24
29 | O=C(O)c1ccc(-c2cnn(C(CC3CC3)c3ccc(-c4c(C(F)F)ccc(Cl)c4F)c[n+]3[O-])c2)cc1 (stereo not drawn) [Example Q16] | 6.52

Continued, values first:

Row | pIC50 | SMILES
30 | 7.38 | Cn1ncnc1-c1cnn(C(CC2CC2)c2ccc(-c3c(-n4cc(C(F)(F)F)nn4)ccc(Cl)c3F)c[n+]2[O-])c1 (stereo not drawn) [Example P874]
31 | 7.26 | COc1cc(C(CC2CC2)n2cc(-c3ccc(N)nc3F)cn2)[n+]([O-])cc1-c1c(-c2cnco2)ccc(Cl)c1F (stereo not drawn) [Example P182]
32 | 8.62 | [2H]C([2H])([2H])n1nccc1-c1cnn([C@H](CCOC(F)F)c2ccc(-c3c(-n4cnnn4)ccc(Cl)c3F)c[n+]2[O-])c1 [Example P556]
33 | 7.72 | [O-][n+]1cc(-c2c(-n3cnnn3)ccc(Cl)c2F)ccc1[C@@H](Cc1cnn(C(F)F)n1)n1cc(-c2ccnc(C(F)(F)F)c2)cn1 [Example P742]
34 | 8.14 | [O-][n+]1cc(-c2c(-n3cnnn3)ccc(Cl)c2F)ccc1C(Cn1cc(F)c(COC(F)F)n1)n1cc(-c2ccnc(C(F)(F)F)c2)cn1 (single isomer, unassigned) [Example P570]
35 | 7.93 | NC(=O)c1ccc(-c2cnn(C(Cn3cccn3)c3ccc(-c4c(-n5cc(C(F)(F)F)nn5)ccc(Cl)c4F)c[n+]3[O-])c2)cc1F (stereo not drawn) [Example P948]
36 | 7.41 | NC(=O)C1CC1CC(c1ccc(-c2c(-n3cnnn3)ccc(Cl)c2F)c[n+]1[O-])n1cc(-c2ccc(N)nc2F)cn1 (single isomer, unassigned) [Example P340]
37 | 7.72 | [O-][n+]1cc(-c2c(-n3cnnn3)ccc(Cl)c2F)ccc1C(Cn1cc(F)cn1)n1cc(-c2ccnc(C(F)(F)F)c2)cn1 (stereo not drawn) [Example P275]
38 | 7.76 | Cn1cc(CC(c2ccc(-c3c(-n4cnnn4)ccc(Cl)c3F)c[n+]2[O-])n2cc(-c3ccnc(C#N)c3)cn2)cn1 (stereo not drawn) [Example P408]
39 | 7.90 | N#Cc1cc(-c2cnn(C(Cn3cc(F)cn3)c3ccc(-c4c(-n5cnnn5)ccc(Cl)c4F)c[n+]3[O-])c2)ccn1 (single isomer, unassigned) [Example P454]
40 | 7.29 | [O-][n+]1cc(-c2cc(Cl)ccc2-n2cnnn2)ccc1C(Cc1ccc(Cl)cc1)n1cc(-c2ccncc2F)cn1 (stereo not drawn) [Example P174]
41 | 7.36 | [O-][n+]1cc(-c2c(-n3cnnn3)ccc(Cl)c2F)ccc1C(CCOC(F)F)n1cc(-c2ccncn2)cn1 (stereo not drawn) [Example P367]
42 | 7.99 | NC(=O)c1ccc(-c2cnn([C@H](CCOC(F)F)c3ccc(-c4c(-n5cc(C(F)(F)F)nn5)ccc(Cl)c4F)c[n+]3[O-])c2)cc1F [Example P860]
43 | 8.51 | [O-][n+]1cc(-c2c(-n3cnnn3)ccc(Cl)c2F)ccc1[C@@H](Cc1ccc(F)cc1)n1cc(-c2ccnn2C(F)F)cn1 [Example P568]
44 | 7.66 | [O-][n+]1cc(-c2c(-n3cnnn3)ccc(Cl)c2F)ccc1C(C(O)c1ccccc1)n1cc(-c2ccnn2C(F)F)cn1 (single isomer, unassigned) [Example P716]
45 | 7.87 | [O-][n+]1cc(-c2c(-n3cnnn3)ccc(Cl)c2F)ccc1C(Cn1cc(F)cn1)n1cc(-c2ccnc(F)c2)cn1 (stereo not drawn) [Example P352]
46 | 7.34 | COC(=O)Nc1ccc(-c2cnn(C(Cc3ccc(Cl)cc3)c3ccc(-c4cc(Cl)ccc4-n4cnnn4)c[n+]3[O-])c2)cc1 (stereo not drawn) [Example P92]
47 | 7.25 | CN(CC(c1ccc(-c2c(-n3cnnn3)ccc(Cl)c2F)c[n+]1[O-])n1cc(-c2ccnc(C(F)(F)F)c2)cn1)C(=O)OCc1ccccc1 (single isomer, unassigned) [Example P375]
48 | 7.30 | COCC[C@H](c1ccc(-c2c(C(F)F)ccc(Cl)c2F)c[n+]1[O-])n1cc(-c2ccc(C(=O)O)cc2)cn1 [Example Q34]
49 | 8.21 | [O-][n+]1cc(-c2c(-n3cnnn3)ccc(Cl)c2F)ccc1C(Cn1cccn1)n1cc(-c2ccncc2)cn1 (stereo not drawn) [Example P269]
50 | 7.84 | [O-][n+]1cc(-c2c(-n3cnnn3)ccc(Cl)c2F)ccc1C(CCOC(F)F)n1cc(-c2ccnc(C(F)(F)F)c2)cn1 (stereo not drawn) [Example P462]
51 | 7.53 | COc1cc(C(CC2CC2)n2cc(-c3ncnn3C)cn2)[n+]([O-])cc1-c1cc(Cl)ccc1-n1cc(C(F)(F)F)nn1 (single isomer, unassigned) [Example P918]
52 | 7.83 | [O-][n+]1ccc(-c2cnn(C(CCOC(F)F)c3ccc(-c4c(-n5cnnn5)ccc(Cl)c4F)c[n+]3[O-])c2)c(F)c1 (single isomer, unassigned) [Example P306]
53 | 7.92 | O=C(c1ccn(CC(c2ccc(-c3c(-n4cnnn4)ccc(Cl)c3F)c[n+]2[O-])n2cc(-c3ccnc(C(F)(F)F)c3)cn2)n1)N1CCCCC1 (single isomer, unassigned) [Example P449]
54 | 8.12 | [O-][n+]1cc(-c2c(-n3cnnn3)ccc(Cl)c2F)ccc1[C@@H](Cc1ccc(F)cc1)n1cc(-c2ccn(C(F)F)n2)cn1 [Example P569]
